This is an account of results in ChEMBL document CHEMBL1157539, “Thousands of chemical starting points for antimalarial lead identification” (Nature, 2010).

“And” between values parts separate entries of the source, which are not always exact repeats. Identical values can stand only once.

One assay has as its system Plasmodium falciparum. Kind of assay: GSK_TCMDC: Inhibition of Plasmodium falciparum 3D7 in whole erythrocytes, using parasite LDH activity as an index of growth. It is filed as functional, organism-based.
Details: not given
In the case of `O=C(C=Cc1ccccc1C(F)(F)F)NC1CCC(CN2CCC(c3c[nH]c4ccccc34)CC2)CC1` (configuration not stated), the XC50 came to 0.902 µM. `O=C(C=Cc1ccc(F)c(Br)c1)NC1CCC(CN2CCC(c3c[nH]c4ccccc34)CC2)CC1` (configuration not stated) registered an XC50 of 0.842 µM. The same measure, in the same setting: in the case of `O=C(NC1CCC(CN2CCC(c3c[nH]c4ccccc34)CC2)CC1)c1cc2ccccc2s1` (configuration not stated) it was 0.725 µM; in that of `Cc1c(C)c2c(c(C)c1O)CC[C@](C)(C(=O)NC1CCC(CN3CCC(c4c[nH]c5ccccc45)CC3)CC1)O2` (some centres not stated), 1.12 µM; in that of `O=C(Nc1cccc(-c2cccc(-c3nc4ccccc4[nH]3)c2)c1)NC1CC1c1ccccc1` (configuration not stated), 0.898 µM.

`CC(C)(C)c1cc(/C=C/C(=O)NC2CCC(CN3CCC(c4c[nH]c5ccccc45)CC3)CC2)cc(C(C)(C)C)c1O` (configuration not stated) showed an XC50 of 0.719 µM. On to `Cc1cc(=O)c(-c2ccc(Oc3cccc(C(F)(F)F)c3)cc2)c(C)[nH]1`, for which the XC50 is 0.629 µM and 0.209 µM. For `O=C(/C=C/c1ccc(Cl)c(Cl)c1)NC1CCC(CN2CCC(c3c[nH]c4cc(C(F)(F)F)ccc34)CC2)CC1` (configuration not stated), the XC50 is 0.278 µM and 0.897 µM.

Take `S=C(Nc1ccc2c(c1)OCCO2)NC1CCC(CN2CCC(c3c[nH]c4ccccc34)CC2)CC1` (configuration not stated): the XC50 came to 1 µM. Compound `Cc1ccc(/C=C/C(=O)NC2CCC(CN3CCC(c4c[nH]c5ccccc45)CC3)CC2)cc1` (configuration not stated) registered an XC50 of 0.798 µM.

On to `CSc1nccc(-c2ccc(S(=O)(=O)NC3CCC(CN4CCC(c5c[nH]c6ccccc56)CC4)CC3)s2)n1` (configuration not stated), for which the XC50 is 0.811 µM and 0.254 µM. Regarding `O=C(/C=C/c1ccc(Cl)c(Cl)c1)NCCCCCN1C2CCC1CC(c1c[nH]c3ccc(O)cc13)C2` (configuration not stated), the XC50 came out at 0.879 µM.

`O=C(Nc1ccccc1OC(F)(F)F)NC1CCC(CN2CCC(c3c[nH]c4ccccc34)CC2)CC1` (configuration not stated): the XC50 was 0.369 µM and 0.8 µM.

The compound `O=C(C=Cc1ccccc1Br)NC1CCC(CN2CCC(c3c[nH]c4ccccc34)CC2)CC1` (configuration not stated) returned an XC50 of 0.687 µM.

Turning to `O=C(C=C1c2ccccc2-c2ccccc21)NC1CCC(CN2CCC(c3c[nH]c4ccccc34)CC2)CC1` (configuration not stated), the XC50 is 0.697 µM.

Take `COC(=O)c1sccc1NC(=S)NC1CCC(CN2CCC(c3c[nH]c4ccccc34)CC2)CC1` (configuration not stated): the XC50 was found to be 0.574 µM.

`O=C(/C=C/c1ccccc1O)NC1CCC(CN2CCC(c3c[nH]c4ccccc34)CC2)CC1` (configuration not stated) returned an XC50 of 0.461 µM. Turning to `COc1ccc(C=CC(=O)NC2CCC(CN3CCC(c4c[nH]c5ccccc45)CC3)CC2)cc1OC` (configuration not stated), the XC50 amounted to 0.841 µM. Same read-out and setting: in the case of `O=C(Nc1cc(C(F)(F)F)cc(C(F)(F)F)c1)NC1CCC(CN2CCC(c3c[nH]c4ccccc34)CC2)CC1` (configuration not stated) it was 0.461 µM; in that of `COc1ccc(-c2ccccc2)cc1NC(=S)NC1CCC(CN2CCC(c3c[nH]c4ccccc34)CC2)CC1` (configuration not stated), 0.74 µM; in that of `O=C(C=Cc1ccc(-c2ccccc2)cc1)NC1CCC(CN2CCC(c3c[nH]c4ccccc34)CC2)CC1` (configuration not stated), 0.807 µM. `COC(=O)c1ccc(CC(C)NCC(O)c2cccc(C(F)(F)F)c2)cc1` (configuration not stated) [listing 1 of 2 here]: the XC50 came to 0.765 µM.

For `Oc1cccc(-c2nc3cc(C4=NC5CCCCC5N4)ccc3[nH]2)c1` (configuration not stated), the XC50 came out at 0.53 µM. The same measure, in the same setting: in the case of `O=C(NCCCCN1CCCC2c3ccc(O)cc3CCC21)c1ccc(-c2ccccc2)cc1` (configuration not stated) it was 0.945 µM. As to `COc1ccc2nccc([C@@H](O)CN3CCC(NCc4nc5c(cc4Cl)SCC(=O)N5)C(F)C3)c2c1` (some centres not stated), the XC50 amounted to 0.759 µM. Take `COC(=O)/C=C/c1ccc(CC(C)NCC(O)c2cccc(C(F)(F)F)c2)cc1` (configuration not stated): the XC50 amounted to 0.775 µM. For `Cc1ccc(/C=C/C(=O)NC2CCC(CN3CCC(c4c[nH]c5ccccc45)CC3)CC2)cc1C` (configuration not stated), the XC50 was found to be 0.821 µM.

Turning to `O=C(/C=C/c1cccc2ccccc12)NC1CCC(CN2CCC(c3c[nH]c4ccccc34)CC2)CC1` (configuration not stated), the XC50 amounted to 0.745 µM. For `COc1ccc2ncc(F)c(CCN3CC(O)C(CNCc4nc5c(cc4Cl)OCC(=O)N5)C3)c2n1` (configuration not stated), the XC50 is 1.28 µM and 0.954 µM. `COc1ccc(C[C@@H](C)NC[C@H](O)c2cccc(Cl)c2)cc1F` registered an XC50 of 0.992 µM.

In turn, `COC(=O)c1ccc(CC(C)NCC(O)c2cccc(C(F)(F)F)c2)cc1` (configuration not stated) [listing 2 of 2 here] had an XC50 of 0.974 µM.

For `Cc1ccc(CC(C)NC[C@H](O)c2cccc(Cl)c2)cc1` (some centres not stated), the XC50 came out at 0.927 µM. As for `NC1=NC(c2ccccc2)(c2cccc(O)c2)C(=O)N1CCCc1ccccc1` (configuration not stated), the XC50 came out at 0.836 µM.

The assay is the same for the next values; noted with them: Plasmodium falciparum, 3D7.
`O=C(C=Cc1ccccc1C(F)(F)F)NC1CCC(CN2CCC(c3c[nH]c4ccccc34)CC2)CC1` (configuration not stated) gave an XC50 of 0.677 µM. `O=C(C=Cc1ccc(F)c(Br)c1)NC1CCC(CN2CCC(c3c[nH]c4ccccc34)CC2)CC1` (configuration not stated) gave an XC50 of 0.789 µM. The compound `O=C(NC1CCC(CN2CCC(c3c[nH]c4ccccc34)CC2)CC1)c1cc2ccccc2s1` (configuration not stated) showed an XC50 of 0.729 µM. On the same count and under the same terms, to `Cc1c(C)c2c(c(C)c1O)CC[C@](C)(C(=O)NC1CCC(CN3CCC(c4c[nH]c5ccccc45)CC3)CC1)O2` (some centres not stated) belongs 0.881 µM. `O=C(Nc1cccc(-c2cccc(-c3nc4ccccc4[nH]3)c2)c1)NC1CC1c1ccccc1` (configuration not stated): the XC50 is 1.07 µM. In the case of `CC(C)(C)c1cc(/C=C/C(=O)NC2CCC(CN3CCC(c4c[nH]c5ccccc45)CC3)CC2)cc(C(C)(C)C)c1O` (configuration not stated), the XC50 came to 0.705 µM.

In the case of `S=C(Nc1ccc2c(c1)OCCO2)NC1CCC(CN2CCC(c3c[nH]c4ccccc34)CC2)CC1` (configuration not stated), the XC50 was determined as 0.653 µM. In the case of `Cc1ccc(/C=C/C(=O)NC2CCC(CN3CCC(c4c[nH]c5ccccc45)CC3)CC2)cc1` (configuration not stated), the XC50 came out at 0.92 µM. In turn, `O=C(/C=C/c1ccc(Cl)c(Cl)c1)NCCCCCN1C2CCC1CC(c1c[nH]c3ccc(O)cc13)C2` (configuration not stated) returned an XC50 of 0.998 µM.

`O=C(C=Cc1ccccc1Br)NC1CCC(CN2CCC(c3c[nH]c4ccccc34)CC2)CC1` (configuration not stated) registered an XC50 of 0.737 µM. On to `O=C(C=C1c2ccccc2-c2ccccc21)NC1CCC(CN2CCC(c3c[nH]c4ccccc34)CC2)CC1` (configuration not stated), for which the XC50 was 0.795 µM.

`COC(=O)c1sccc1NC(=S)NC1CCC(CN2CCC(c3c[nH]c4ccccc34)CC2)CC1` (configuration not stated) displayed an XC50 of 0.915 µM. The compound `O=C(/C=C/c1ccccc1O)NC1CCC(CN2CCC(c3c[nH]c4ccccc34)CC2)CC1` (configuration not stated) came in with an XC50 of 0.756 µM. With `COc1ccc(C=CC(=O)NC2CCC(CN3CCC(c4c[nH]c5ccccc45)CC3)CC2)cc1OC` (configuration not stated), the XC50 was found to be 0.801 µM. Same read-out and setting: to `O=C(Nc1cc(C(F)(F)F)cc(C(F)(F)F)c1)NC1CCC(CN2CCC(c3c[nH]c4ccccc34)CC2)CC1` (configuration not stated) belongs 0.81 µM; to `COc1ccc(-c2ccccc2)cc1NC(=S)NC1CCC(CN2CCC(c3c[nH]c4ccccc34)CC2)CC1` (configuration not stated), 0.652 µM; to `O=C(C=Cc1ccc(-c2ccccc2)cc1)NC1CCC(CN2CCC(c3c[nH]c4ccccc34)CC2)CC1` (configuration not stated), 0.738 µM. In turn, `O=C(NCCCCN1CCCC2c3ccc(O)cc3CCC21)c1ccc(-c2ccccc2)cc1` (configuration not stated) came in with an XC50 of 0.732 µM. For the compound `COc1ccc2nccc([C@@H](O)CN3CCC(NCc4nc5c(cc4Cl)SCC(=O)N5)C(F)C3)c2c1` (some centres not stated), the XC50 was found to be 0.505 µM.

Compound `Cc1ccc(/C=C/C(=O)NC2CCC(CN3CCC(c4c[nH]c5ccccc45)CC3)CC2)cc1C` (configuration not stated) returned an XC50 of 0.832 µM. Still for that read-out and setting: to `O=C(/C=C/c1cccc2ccccc12)NC1CCC(CN2CCC(c3c[nH]c4ccccc34)CC2)CC1` (configuration not stated) belongs 0.666 µM; to `COc1ccc2ncc(F)c(CCN3CC(O)C(CNCc4nc5c(cc4Cl)OCC(=O)N5)C3)c2n1` (configuration not stated), 0.83 µM; to `COC(=O)c1ccc(CC(C)NCC(O)c2cccc(C(F)(F)F)c2)cc1` (configuration not stated) [listing 2 of 2 here], 1.15 µM. As to `NC1=NC(c2ccccc2)(c2cccc(O)c2)C(=O)N1CCCc1ccccc1` (configuration not stated), the XC50 is 1.23 µM.
